Here are results for 101 compounds from PubChem BioAssay AID1549 (Sanford-Burnham Center for Chemical Genomics, 2009).

Calls of active or inactive are those of the source. No rule for the calls is given here.

This test has as its target Influenza A virus M2 proton channel (A/TW/4845/1999 H1N1). The test can be described thus: M2 proton channel binding, NMR based, influenza A virus H1N1 strain (AID 1549). The settings on record: NMR binding screen, M2 protein.
In general, Kd refers to a measure of binding affinity in units of concentration. On to `COC(=O)c1ccccc1C`, for which the Kd is > 4 mM (inactive).
The same measure for `Cc1ccccc1N1CCN(C(=O)C2CCCCC2)CC1`: > 4 mM (inactive); for `C=C1CCC(C2CC(=O)OC2=O)C(=O)CCC2C1CC2(C)C` (stereo unspecified): > 4 mM (inactive).
`CN1CCC(NC(=O)c2c(F)cccc2Cl)CC1`: the Kd was > 4 mM (inactive).
As to `NS(=O)(=O)c1ccc(N2CCCC2=O)cc1`, the Kd was > 4 mM (inactive).
The same measure for `CSc1cc(C)[nH]c(=O)n1`: > 4 mM (inactive).
With `S=C(c1cccnc1)N1CCOCC1`, the Kd is > 4 mM (inactive).
The value for `COc1cc(O)c(C)c(O)c1` was > 4 mM (inactive).
With `NCc1nnnn1-c1ccccc1`, the Kd was > 4 mM (inactive).
The same measure for `CSc1ccc(/C=N/n2c(C)nnc2C)cc1`: > 4 mM (inactive); for `CC(=O)c1ccc(-n2ccnc2)cc1`: > 4 mM (inactive); for `O=C(Cn1cncn1)c1ccc(F)c(F)c1`: > 4 mM (inactive).
Turning to `OCc1c[nH]c2ccccc12`, the Kd was > 4 mM (inactive).
Consider `NCc1c[nH]c2ccccc12`, for which the Kd is > 4 mM (inactive).
As for `Cc1nnc(NC(=O)C(C)Sc2nncn2C)s1` (stereo unspecified), the Kd was > 4 mM (inactive).
With `O=C1C2C3CCC(O3)C2C(=O)N1c1cccc(F)c1` (stereo unspecified), the Kd is > 4 mM (inactive).
With `Cc1cc(C)n(-c2nc(C)nc(N)n2)n1`, the Kd was > 4 mM (inactive).
As for `c1cncc(C(N2CCOCC2)N2CCOCC2)c1`, the Kd is > 4 mM (inactive).
The same measure for `COC(=O)[C@]1(C)CCC[C@]2(C)c3ccc(C(C)C)cc3C(=O)CC12` (stereo partly specified): > 4 mM (inactive).
The value for `O=C1C2C3C=CC(C3)C2C(=O)N1c1cccnc1` (stereo unspecified) was > 4 mM (inactive); that for `CC1(C)Cc2c(C#N)c(N)n(-c3ccccc3)c(=O)c2CO1` was > 4 mM (inactive); that for `CN=C(C)c1c(O)n(C)c(=O)n(C)c1=O` was > 4 mM (inactive).
For `CN(C)C(=O)CSc1cccc2cccnc12`, the Kd is > 4 mM (inactive).
As to `Cn1cccc1C(=S)N1CCOCC1`, the Kd was > 4 mM (inactive).
For `CC(=O)Nc1ccc(-c2ccc3nncn3n2)cc1`, the Kd was > 4 mM (inactive).
On to `O=C(O)CSCC(=O)Nc1cccc(O)c1`, for which the Kd was > 4 mM (inactive).
Turning to `Clc1ccc(-c2nnc3ccccn23)cc1`, the Kd is > 4 mM (inactive).
With `Cc1ccc(CN2CCNC(=O)C2CC(=O)O)o1` (stereo unspecified), the Kd was > 4 mM (inactive).
Take `O=c1cc(-c2cc(O)c(O)c(O)c2)oc2cc(O)cc(O)c12`: the Kd was > 4 mM (inactive).
Take `O=C(NCO)c1ccccc1Cl`: the Kd was > 4 mM (inactive).
Take `Nc1ccn(C2O[C@H](CO)[C@@H](O)[C@H]2O)c(=O)n1` (stereo partly specified): the Kd was > 4 mM (inactive).
Take `CC1(C)CC2C1CCC1(C)OC1CCC2(C)O` (stereo unspecified): the Kd was > 4 mM (inactive).
As to `Cc1nc2ccccc2c2c1C(=O)N(N)C2=O`, the Kd is > 4 mM (inactive).
With `N=Nc1c(O)[nH]c2ccccc12`, the Kd is > 4 mM (inactive).
On to `Nc1ccccc1-c1nc2ccccc2[nH]1`, for which the Kd was > 4 mM (inactive).
Take `O=C(O)CNc1ncnc2nc[nH]c12`: the Kd is > 4 mM (inactive).
For the compound `O=C1C2C3C=CC(O3)C2C(=O)N1c1ccccc1` (stereo unspecified), the Kd was > 4 mM (inactive).
Take `O=S(=O)(c1cccc(Cl)c1)N1CCCC1`: the Kd is > 4 mM (inactive).
The value for `CCCCCC/C=C\CCCCCCCc1cccc(O)c1C(=O)O` was > 4 mM (inactive); that for `COCC(=O)Nc1c(C(N)=O)oc2ccccc12` was > 4 mM (inactive); that for `O=c1c(O)c(-c2ccc(O)cc2O)oc2cc(O)cc(O)c12` was > 4 mM (inactive).
Consider `Cc1nn(-c2ccccc2C(=O)O)c(=O)c2ccccc12`, for which the Kd is > 4 mM (inactive).
With `NC(=O)c1sc2ccccc2c1Cl`, the Kd is > 4 mM (inactive).
The value for `Cc1ccc(N2C(=O)CC(=O)NC2=O)cc1` was > 4 mM (inactive); that for `Oc1cc2c(cc1O)C1c3ccc(O)c(O)c3OCC1(O)C2` (stereo unspecified) was > 4 mM (inactive); that for `CCOC(=O)c1ccc(Oc2ccc(C)nn2)cc1` was > 4 mM (inactive).
For the compound `Cc1onc(-c2ccccc2)c1C(=O)Nc1ccncc1`, the Kd is > 4 mM (inactive).
For the compound `CC1(C)C2CC(=O)[C@]3(C)C(CC[C@@]4(C)[C@H](c5ccoc5)OC(=O)C5OC543)[C@@]2(C)[C@@H](O)C[C@H]1O` (stereo partly specified), the Kd was > 4 mM (inactive).
As for `COC(=O)CCC(C)C1CCC2C3CCC4C[C@H](O)CC[C@]4(C)C3C[C@H](O)[C@]12C` (stereo partly specified), the Kd was > 4 mM (inactive).
Consider `OC/C=C/c1ccc(O)c(O)c1`, for which the Kd is > 4 mM (inactive).
The value for `NC(=O)C1CCN(C(=O)CN2CCc3ccccc32)CC1` was > 4 mM (inactive).
The value for `Cc1cc(=O)c2c(O)c(C)c(O)cc2o1` was > 4 mM (inactive); that for `CO[C@H]1[C@@H](O)[C@@H](C)O[C@H](O[C@H]2CCC3(C)C4CCC5(C)[C@@H](C6=CC(=O)OC6)CC[C@]5(O)[C@@H]4CC[C@]3(O)C2)[C@@H]1O` (stereo partly specified) was > 4 mM (inactive).
Consider `CC1(C)C2CC[C@]3(C)C(C(=O)C=C4[C@@H]5C[C@@](C)(C(=O)O)CC[C@]5(C)CC[C@]43C)[C@@]2(C)CC[C@@H]1O` (stereo partly specified), for which the Kd was > 4 mM (inactive).
Regarding `Cc1cc(C)n(CCC(=O)O)n1`, the Kd is > 4 mM (inactive).
Turning to `COC(=O)[C@@H]1OC(=O)C2OC23[C@@]1(C)CCC1[C@]2(C)C(C[C@H](O)[C@]13C)C(C)(C)[C@H](OC(C)=O)C[C@@H]2OC(C)=O` (stereo partly specified), the Kd was > 4 mM (inactive).
The same measure for `O=C(O)C1Cc2c([nH]c3ccccc23)CN1` (stereo unspecified): > 4 mM (inactive).
Take `O=S(=O)(O)c1cc[n+]([O-])cc1`: the Kd was > 4 mM (inactive).
Turning to `Cc1occc1C(=O)NCc1ccccn1`, the Kd was > 4 mM (inactive).
As to `CC(=O)N1CCN(S(=O)(=O)c2ccccc2)CC1`, the Kd is > 4 mM (inactive).
`COc1cc2c(cc1O)[C@@H](Cc1ccc(O)cc1)[N+](C)(C)CC2`: the Kd was > 4 mM (inactive).
With `Cc1ccccc1NC(=O)CSc1ccnc(=O)[nH]1`, the Kd was > 4 mM (inactive).
On to `CC(=O)Nc1nc(-c2cccs2)cs1`, for which the Kd was > 4 mM (inactive).
As to `c1ccc(CCc2nc(-c3cccnc3)no2)cc1`, the Kd was > 4 mM (inactive).
The value for `C=C[C@](C)(O)CCC=C(C)C` was > 4 mM (inactive); that for `O=c1oc(-c2ccccc2)nc2c1cnn2-c1ccccc1` was > 4 mM (inactive); that for `COc1ccc(-c2nc(C)sc2CC(=O)O)cc1` was > 4 mM (inactive).
Turning to `Nc1nc(CSc2ncn(-c3ccccc3)n2)cs1`, the Kd is > 4 mM (inactive).
The value for `Cn1cc(Cl)c(C(=O)Nc2ccc(F)cc2F)n1` was > 4 mM (inactive); that for `COC(=O)c1oc2ccc(Cl)cc2c1NC(C)=O` was > 4 mM (inactive); that for `Cc1nnc(SCc2cccs2)[nH]c1=O` was > 4 mM (inactive).
With `CN=C(c1ccc([N+](=O)[O-])cc1)N(C)C`, the Kd was > 4 mM (inactive).
With `O=C(O)c1cccc(O)c1O`, the Kd is > 4 mM (inactive).
For `CCn1c(C)c(C(C)=O)c(N2CCOCC2)nc1=S`, the Kd is > 4 mM (inactive).
Turning to `O=C(NN1C(=O)c2ccccc2C1=O)c1cccs1`, the Kd is > 4 mM (inactive).
On to `COc1ccc(/C=C2/SC(N)=NC2=O)c(OC)c1`, for which the Kd is > 4 mM (inactive).
In the case of `COc1c(O)cc2c(c1O)[C@H]1O[C@H](CO)[C@@H](O)[C@H](O)[C@@H]1OC2=O`, the Kd is > 4 mM (inactive).
The value for `COC(=O)c1ccccc1N(C)S(C)(=O)=O` was > 4 mM (inactive).
The same measure for `Cc1cc(-c2ccccc2)nc2cc(C(N)=O)nn12`: > 4 mM (inactive); for `N=C1/C(=C\c2ccco2)C(=O)N=C2SC=NN12`: > 4 mM (inactive); for `CCn1nnc(NC(=O)c2ccccc2Br)n1`: > 4 mM (inactive).
The value for `CC(=O)NC(NC(C)=O)c1ccccc1` was > 4 mM (inactive).
As to `COC1C(O)C(O[C@H]2CC[C@]3(C=O)C4C(CC[C@]3(O)C2)[C@@]2(O)CC[C@H](C3=CC(=O)OC3)[C@@]2(C)C[C@H]4OC(C)=O)OC(C)C1OC(C)=O` (stereo partly specified), the Kd was > 4 mM (inactive).
Turning to `CS(C)=C1C(=O)NC(=O)N(Cc2ccc(F)cc2)C1=O`, the Kd was > 4 mM (inactive).
Regarding `O=c1sc2ccccc2n1CN1CCOCC1`, the Kd is > 4 mM (inactive).
The same measure for `Cc1nnc(SCC(=O)NCc2ccccc2)[nH]c1=O`: > 4 mM (inactive).
For the compound `CC(C)c1ccc2c(c1O)CC[C@H]1C3=C(CC[C@]21C)C(=O)OC3`, the Kd is > 4 mM (inactive).
As for `CCN1CCN(c2ncnc3c2nnn3C)CC1`, the Kd was > 4 mM (inactive).
With `CC(=O)Oc1cc(-c2coc3cc(OC(C)=O)c(OC(C)=O)c(OC(C)=O)c3c2=O)cc(OC(C)=O)c1OC(C)=O`, the Kd was > 4 mM (inactive).
The value for `Cc1cc(C)n2nc(C(=O)Nc3cccnc3)nc2n1` was > 4 mM (inactive); that for `CC(C)(C)CC(=O)NC1=NCCS1` was > 4 mM (inactive); that for `O=C(O)C1CC(=O)N(C2Cc3ccccc3C2)C1` (stereo unspecified) was > 4 mM (inactive).
As for `NC(=O)C1CC2C=CC1C2` (stereo unspecified), the Kd is > 4 mM (inactive).
For the compound `O=C(Nn1cnnc1)c1ccccc1-c1ccccc1`, the Kd was > 4 mM (inactive).
On to `O=c1c(O)c(-c2ccccc2)oc2ccc3occc3c12`, for which the Kd was > 4 mM (inactive).
For `COc1cc(-c2coc3cc(OC)c(OC)c(OC)c3c2=O)cc(OC)c1OC`, the Kd was > 4 mM (inactive).
As for `CC(=O)Nc1cccs1`, the Kd is > 4 mM (inactive).
For `O=C(O)c1ccc2nccnc2c1`, the Kd is > 4 mM (inactive).
The value for `NC(C(=O)O)C(O)C(=O)O` (stereo unspecified) was > 4 mM (inactive).
Take `CC(=O)Nc1sccc1C(=O)NC(N)=O`: the Kd is > 4 mM (inactive).
Take `Cn1nc(C(C)(C)C)cc1N`: the Kd is > 4 mM (inactive).
